Target: T1, human CRTH2 (Homo sapiens, UniProt Q9Y5Y4)
T1 sequence (Q9Y5Y4 1-395): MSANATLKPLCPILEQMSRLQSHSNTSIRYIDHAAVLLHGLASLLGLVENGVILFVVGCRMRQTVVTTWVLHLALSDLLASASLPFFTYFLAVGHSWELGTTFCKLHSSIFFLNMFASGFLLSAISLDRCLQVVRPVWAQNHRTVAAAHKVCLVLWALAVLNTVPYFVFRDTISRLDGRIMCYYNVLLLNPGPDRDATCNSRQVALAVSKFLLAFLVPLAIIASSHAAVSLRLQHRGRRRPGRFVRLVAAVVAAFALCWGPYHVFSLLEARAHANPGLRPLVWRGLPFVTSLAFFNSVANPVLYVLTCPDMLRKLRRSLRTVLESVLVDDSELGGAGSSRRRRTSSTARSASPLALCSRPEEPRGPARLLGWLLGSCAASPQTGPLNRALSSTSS
Assay: CRTH-2 binding assay (scintillation proximity assay, inhibition of 3H-PGD2 binding)
Design: expressed in transfected cells; host or cells: 293EBNA-hCRTH2 cells (membrane preparation)
Conditions: membranes from 293EBNA-hCRTH2 cells, 3H-PGD2 3.6 nM; Ki calculated from IC50
Procedure: A CRTH2 binding assay was developed to measure the ability of compounds to inhibit the binding of PGD2 to human CRTH2 using a scintillation proximity assay.
Membranes containing hCRTH2 receptors were prepared from 293EBNA-hCRTH2 cells (a 293EBNA cell line stably expressing human CRTH2). The cells were grown to confluency, harvested and washed with PBS. The cells were resuspended in 10 mM Hepes pH 7.4, 1 mM EDTA and protease inhibitors and incubated for 30 min on ice. The cells were homogenized and centrifuged for 10 min at 1000×g. The supernate was centrifuged for 30 min at 100,000×g and the membrane pellet was then resuspended in 10 mM Hepes pH 7.4 and 1 mM EDTA. The protein concentration of the membrane preparation was determined by Bradford assay (Bio-Rad).
The ability of compounds to inhibit the interaction of PGD2 to human CRTH2 was determined at seven compound concentrations. Compounds were serially diluted in DMSO then diluted into CRTH2 buffer (10 mM Hepes pH 7.4, 1 mM EDTA, 10 mM MnCl2) to six times the final desired concentration. 20 μL of the diluted compounds were transferred into non-surface binding 96-well plates (Corning). Each concentration was done in triplicate. In addition to test compounds, each plate contained 12 control wells. Six of these wells contained 20 μL of CRTH2 buffer. These wells were used to measure total binding. Six wells contained 20 μL of CRTH2 buffer plus 1.5 mM indomethacin. These wells were used to measure non-specific binding. Next, 293EBNA-hCRTH2 membranes were resuspended in CRTH2 buffer with glycerol (10 mM Hepes pH 7.4, 1 mM EDTA, 10 mM MnCl2, 25% glycerol) so that the final concentration was approximately 20 μg/100 μL. Polylysine-coated yttrium silicate SPA beads (Amersham) were added to the membrane mix to a concentration of 0.4 mg/100 μL and finally ^3H-PGD2 was added to the membrane/SPA bead mix to 3.6 nM. 100 μL of the membrane/SPA bead/^3H-PGD2 mix was added to each well of the non-surface binding plates containing the diluted compound or controls. The plates were incubated for 2 hours at room temperature with shaking and then the plates were counted on a Microbeta scintillation counter (Perkin Elmer) for 1 min per well.
IC50 values were determined from the experimental results by nonlinear regression using Prism 4.0 software. The IC50 values were then used in conjunction with the Kd for hCRTH2 and the ^3H-PGD2 concentration used in the experiment to calculate the Ki for each compound.

Ki | Structure (SMILES)
< 1000 nM | CCCc1nc2c(N(Cc3ccc(F)cc3)S(=O)(=O)c3cccc(F)c3)cccc2n1CC(=O)O [Example 37, {4-[(3 -Fluoro-benzenesulfonyl)-(4-fluoro-benzyl)-amino]-2-propyl-benzoimidazol-1-yl}-acetic acid]
< 10000 nM | CCCc1nc2cc(N(Cc3ccccc3)C(=O)c3c(F)cccc3F)ccc2n1CC(=O)O [Example 68, {5-[Benzyl-(2,6-difluoro-benzoyl)-amino]-2-propyl-benzoimidazol-1-yl}-acetic acid]
< 1000 nM | CCCc1nc2cc(N(Cc3ccc(F)cc3)C(=O)C3CC3)ccc2n1CC(=O)O [Example 31, {5-[Cyclopropanecarbonyl-(4-fluoro-benzyl)-amino]-2-propyl-benzoimidazol-1-yl}-acetic acid]
< 1000 nM | CCCCc1nc2cc(NS(=O)(=O)c3ccc(F)cc3)ccc2n1CC(=O)O [Example 12, [2-Butyl-5-(4-fluoro-benzenesulfonylamino)-benzoimidazol-1-yl]-acetic acid]
< 1000 nM | CCCC(C)c1nc2cc(NS(=O)(=O)c3ccc(F)cc3)ccc2n1CC(=O)O (stereo not drawn) [Example 2, [5-(4-Fluoro-benzenesulfonylamino)-2-(1-methyl-butyl)-benzoimidazol-1-yl]-acetic acid]
< 10000 nM | CCCc1nc2cc(N(Cc3ccccc3)C(=O)CC(C)C)ccc2n1CC(=O)O [Example 59, {5-[Benzyl-(3-methyl-butyryl)-amino]-2-propyl-benzoimidazol-1-yl}-acetic acid]
< 1000 nM | CCCCc1nc2cc(N(Cc3ccccc3)S(=O)(=O)c3ccc(F)cc3)ccc2n1CC(=O)O [Example 15, {5-[Benzyl-(4-fluoro-benzenesulfonyl)-amino]-2-butyl-benzoimidazol-1-yl}-acetic acid]
< 1000 nM | CCCc1nc2c(N(Cc3ccccc3)S(=O)(=O)c3cccc(F)c3)cccc2n1CC(=O)O [Example 34, {4-[Benzyl-(3-fluoro-benzenesulfonyl)-amino]-2-propyl-benzoimidazol-1-yl}-acetic acid]
< 100 nM | CCCc1nc2cc(N(CCC(C)C)S(=O)(=O)c3ccc(F)cc3)ccc2n1CC(=O)O [Example 20, {5-[(4-Fluoro-benzenesulfonyl)-(3-methyl-butyl)-amino]-2-propyl-benzoimidazol-1-yl}-acetic acid]
> 10000 nM | CCCCCc1nc2cc(NS(=O)(=O)c3ccc(F)cc3)ccc2n1CC(=O)O [Example 9, [5-(4-Fluoro-benzenesulfonylamino)-2-pentyl-benzoimidazol-1-yl]-acetic acid]

Continued, compound first:

Structure (SMILES) | Ki
CC(C)c1nc2cc(N(Cc3ccccc3)S(=O)(=O)c3ccc(F)cc3)ccc2n1CC(=O)O [Example 16, {5-[Benzyl-(4-fluoro-benzenesulfonyl)-amino]-2-isopropyl-benzoimidazol-1-yl}-acetic acid] | < 1000 nM
CCCc1nc2cc(N(Cc3c(C)noc3C)S(=O)(=O)c3ccc(F)cc3)ccc2n1CC(=O)O [Example 24, {5-[(3,5-Dimethyl-isoxazol-4-ylmethyl)-(4-fluoro-benzenesulfonyl)-amino]-2-propyl-benzoimidazol-1-yl}-acetic acid] | < 1000 nM
CCCc1nc2c(N(CCOC)S(=O)(=O)c3cccc(F)c3)cccc2n1CC(=O)O [Example 35, {4-[(3-Fluoro-benzenesulfonyl)-(2-methoxy-ethyl)-amino]-2-propyl-benzoimidazol-1-yl}-acetic acid] | < 10000 nM
CCCc1nc2cc(N(CC3COc4ccccc4O3)S(=O)(=O)c3ccc(F)cc3)ccc2n1CC(=O)O (stereo not drawn) [Example 23, {5-[(2,3 -Dihydro-benzo[1,4]dioxin-2-ylmethyl)-(4-fluoro-benzenesulfonyl)-amino]-2-propyl-benzoimidazol-1-yl}-acetic acid] | < 100 nM
CSCCc1nc2cc(NS(=O)(=O)c3ccc(F)cc3)ccc2n1CC(=O)O [Example 5, [5-(4-Fluoro-benzenesulfonylamino)-2-(2-methylsulfanyl-ethyl)-benzoimidazol-1-yl]-acetic acid] | < 10000 nM
CCCc1nc2c(N(CCC(C)C)S(=O)(=O)c3cccc(F)c3)cccc2n1CC(=O)O [Example 36, {4-[(3-Fluoro-benzenesulfonyl)-(3-methyl-butyl)-amino]-2-propyl-benzoimidazol-1-yl}-acetic acid] | < 1000 nM
CCCc1nc2cc(N(Cc3ccccc3)C(=O)c3cccc(F)c3)ccc2n1CC(=O)O [Example 65, {5-[Benzyl-(3-fluoro-benzoyl)-amino]-2-propyl-benzoimidazol-1-yl}-acetic acid] | < 10000 nM
CCCc1nc2cc(N(Cc3ccccc3)C(=O)c3cccc(Cl)c3)ccc2n1CC(=O)O [Example 62, {5-[Benzyl-(3-chloro-benzoyl)-amino]-2-propyl-benzoimidazol-1-yl}-acetic acid] | < 1000 nM
CCCc1nc2cc(N(Cc3ccccc3)C(=O)C3CCCC3)ccc2n1CC(=O)O [Example 60, [5-(Benzyl-cyclopentanecarbonyl-amino)-2-propyl-benzoimidazol-1-yl]-acetic acid] | < 10000 nM
C=CCOC(=O)NCCc1nc2cc(NS(=O)(=O)c3ccc(F)cc3)ccc2n1CC(=O)O [Example 11, [2-(2-Allyloxycarbonylamino-ethyl)-5-(4-fluoro-benzenesulfonylamino)-benzoimidazol-1-yl]-acetic acid] | < 10000 nM
CCCCC(CC)c1nc2cc(NS(=O)(=O)c3ccc(F)cc3)ccc2n1CC(=O)O (stereo not drawn) [Example 10, [2-(1-Ethyl-pentyl)-5-(4-fluoro-benzenesulfonylamino)-benzoimidazol-1-yl]-acetic acid] | > 10000 nM
CCCc1nc2cc(N(Cc3ccccc3)C(=O)C3CCCCC3)ccc2n1CC(=O)O [Example 61, [5-(Benzyl-cyclohexanecarbonyl-amino)-2-propyl-benzoimidazol-1-yl]-acetic acid] | < 10000 nM
CCCc1nc2cc(N(Cc3ccccc3C#N)S(=O)(=O)c3ccc(F)cc3)ccc2n1CC(=O)O [Example 54, {5-[(2-Cyano-benzyl)-(4-fluoro-benzenesulfonyl)-amino]-2-propyl-benzoimidazol-1-yl}-acetic acid] | < 1000 nM
CCCc1nc2cc(NS(=O)(=O)c3ccc(F)cc3)ccc2n1CC(=O)O [Example 1, [5-(4-Fluoro-benzenesulfonylamino)-2-propyl-benzoimidazol-1-yl]-acetic acid] | < 1000 nM
CC/C=C/c1nc2cc(NS(=O)(=O)c3ccc(F)cc3)ccc2n1CC(=O)O [Example 6, [2-But-1-enyl-5-(4-fluoro-benzenesulfonylamino)-benzoimidazol-1-yl]-acetic acid] | < 10000 nM
CCCc1nc2cc(NC(=O)OC(C)(C)C)ccc2n1CC(=O)O [Example 25, (5-tert-Butoxycarbonylamino-2-propyl-benzoimidazol-1-yl)-acetic acid] | < 10000 nM
CCCc1nc2cc(N(Cc3ccccc3)C(C)=O)ccc2n1CC(=O)O [Example 57, [5-(Acetyl-benzyl-amino)-2-propyl-benzoimidazol-1-yl]-acetic acid] | < 10000 nM
CCCc1nc2cc(N(Cc3ccccc3)C(=O)C(C)C)ccc2n1CC(=O)O [Example 58, [5-(Benzyl-isobutyryl-amino)-2-propyl-benzoimidazol-1-yl]-acetic acid] | > 10000 nM
CCCc1nc2cc(N(Cc3ccc(F)cc3)S(=O)(=O)c3ccccc3F)ccc2n1CC(=O)O [Example 28, {5-[(2-Fluoro-benzenesulfonyl)-(4-fluoro-benzyl)-amino]-2-propyl-benzoimidazol-1-yl}-acetic acid] | < 1000 nM
CCCc1nc2cc(N(C(C)C)S(=O)(=O)c3ccc(F)cc3)ccc2n1CC(=O)O [Example 21, {5-[(4-Fluoro-benzenesulfonyl)-isopropyl-amino]-2-propyl-benzoimidazol-1-yl}-acetic acid] | < 100 nM

From patent US7732618B2, “Benzimidazole acetic acids exhibiting CRTH2 receptor antagonism and uses thereof” (Wyeth, priority 2004, dated 2010)
